# What was measured:
# [1] = biological target: T1, hG9a (Homo sapiens, UniProt Q96KQ7); experiment: Methylation of HA-hG9a in Cos-7 cells (pan met-K immunoprecipitation/immunoblot); format: cell-based, African green monkey; details: Cos-7 cells, 2 μM inhibitor, 24 h
# T1 construct: transfected with a plasmid encoding full length HA-hG9a and treated with 2 μM UNC0646; expressed in transfected cells; host or cells: Cos-7
# T1 sequence (Q96KQ7 1-1210): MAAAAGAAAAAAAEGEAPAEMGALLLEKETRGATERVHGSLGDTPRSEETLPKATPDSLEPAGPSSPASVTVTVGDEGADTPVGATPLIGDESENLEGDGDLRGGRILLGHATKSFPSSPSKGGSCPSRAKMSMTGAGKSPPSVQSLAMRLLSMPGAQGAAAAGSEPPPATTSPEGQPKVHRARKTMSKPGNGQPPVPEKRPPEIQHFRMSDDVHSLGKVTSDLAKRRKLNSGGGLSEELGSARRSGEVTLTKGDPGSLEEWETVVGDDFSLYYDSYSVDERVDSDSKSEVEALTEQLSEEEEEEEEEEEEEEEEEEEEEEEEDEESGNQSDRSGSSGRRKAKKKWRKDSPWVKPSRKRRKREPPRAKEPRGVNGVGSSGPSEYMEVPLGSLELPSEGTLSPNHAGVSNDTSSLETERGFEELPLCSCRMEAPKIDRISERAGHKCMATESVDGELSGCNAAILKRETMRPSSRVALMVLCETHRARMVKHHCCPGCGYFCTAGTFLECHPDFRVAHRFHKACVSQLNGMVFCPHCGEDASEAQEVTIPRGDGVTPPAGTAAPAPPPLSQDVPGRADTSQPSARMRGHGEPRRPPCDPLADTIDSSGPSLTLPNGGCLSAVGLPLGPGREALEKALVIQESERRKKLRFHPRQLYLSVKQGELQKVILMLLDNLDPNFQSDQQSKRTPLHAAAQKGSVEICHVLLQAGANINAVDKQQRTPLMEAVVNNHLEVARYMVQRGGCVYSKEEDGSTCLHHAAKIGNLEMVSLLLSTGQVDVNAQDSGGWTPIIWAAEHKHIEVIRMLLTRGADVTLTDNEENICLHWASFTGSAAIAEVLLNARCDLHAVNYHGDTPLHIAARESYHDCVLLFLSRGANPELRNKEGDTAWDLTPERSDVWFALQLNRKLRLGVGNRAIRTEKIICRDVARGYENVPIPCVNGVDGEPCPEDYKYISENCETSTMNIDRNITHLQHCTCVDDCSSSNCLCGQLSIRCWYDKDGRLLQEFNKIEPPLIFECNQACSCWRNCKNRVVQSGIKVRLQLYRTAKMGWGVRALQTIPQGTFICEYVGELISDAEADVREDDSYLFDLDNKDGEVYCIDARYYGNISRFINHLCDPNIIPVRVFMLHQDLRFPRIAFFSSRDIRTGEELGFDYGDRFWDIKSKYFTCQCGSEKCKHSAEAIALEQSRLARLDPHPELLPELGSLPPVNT
# Method: (§1) Cells were transiently transfected (where indicated) using Lipofectamine 2000 (Invitrogen) with 5 μg each of the indicated plasmids according to the manufacturer's protocol. […] Protein extracts were incubated with 1 μg of the indicated primary antibodies overnight at 4° C. with shaking. Protein A/G Plus Agarose (Santa Cruz sc-2003) beads were added and the mixture was incubated 2 hr at 4° C. The immunoprecipitates were separated on SDS-PAGE. Immunoblotting was conducted with primary antibodies against HA epitope (3F10 Roche Applied Science); G9a (G6919), FLAG (F1804), (3-actin (A5441), or GAPDH (G9545) from Sigma; aurora kinase B (ab2254), HP1γ (ab10480), HP1γ (ab56978), phospho-593-HP1γ (ab45270) or pan methyllysine (ab23366) from Abcam; GR (sc-8992) from Santa Cruz; GLP (09-078), or pan phospho-threonine (AB1607) from Millipore; phospho-S211-GR (#4161), H3K9me3 (#13969), H3S10ph (#53348), Histone H3 (#4499) from Cell signaling; or E-cadherin (610182) from BD transduction laboratories. Secondary antibodies from Santa Cruz Biotechnology (anti-rat) and Promega (anti-rabbit and anti-mouse) were used for chemiluminescence detection using Super Signal West Dura (Thermo Scientific) for proteins with low expression levels and ECL prime detection reagent (Amersham) for all other proteins according to the manufacturers' instructions. In immunoprecipitation experiments 3% of the input of each sample was analyzed by immunoblot using the antibodies listed.
# (§2) Lysates were immunoprecipitated (IP) with pan met-K antibody and immunoblotted with HA antibody (top), or the usage of the two antibodies was reversed (bottom). Expression of HA-tagged proteins and β-actin (loading control) in the unfractionated extracts is shown at the bottom (Input). For FIG. 17D, Cos-7 cells were transfected with a plasmid encoding full length HA-hG9a and treated with 2 μM UNC0646 or vehicle DMSO for 24 h. Lysates were immunoprecipitated with pan met-K antibody and immunoblotted with HA antibody (top), or the usage of the two antibodies was reversed (bottom).
# (§3) Lysates were immunoprecipitated with pan met-K antibody and immunoblotted with HA antibody (top).
# [2] = biological target: T2, hG9a (Homo sapiens, UniProt Q96KQ7); experiment: as above; format: cell-based, African green monkey; details: Cos-7 cells expressing HA-hG9a N, 2 μM, 24 h
# T2 construct: transfected with a plasmid encoding full length HA-hG9a and treated with 2 μM UNC0646; expressed in transfected cells; host or cells: Cos-7
# Method: as §1, §2, §3
# [3] = test system: G9a and GLP phosphorylation; experiment: Phosphorylation of HA-hG9a or HA-hGLP in Cos-7 cells (pan ph-T immunoprecipitation); format: cell-based, monkey; details: 2 μM, 24 h
# Method: Cos-7 or A549 cells were seeded on 10-cm dishes the day before transfection. Cells were transiently transfected (where indicated) using Lipofectamine 2000 (Invitrogen) with 5 μg each of the indicated plasmids according to the manufacturer's protocol. At 48 h after transfection, cells were treated (or not) with dex for the indicated time period, and cell extracts were prepared in RIPA buffer (50 mM Tris-HCl, pH 8, 150 mM NaCl, 1 mM EDTA, 1% NP-40 and 0.25% deoxycholate) supplemented with protease inhibitor tablets (Roche Molecular Biochemicals) and phosphatase inhibitors (1 mM NaF, 1 mM Na3VO4 and 1 mM β-glycerophosphate). Protein extracts were incubated with 1 μg of the indicated primary antibodies overnight at 4° C. with shaking. Protein A/G Plus Agarose (Santa Cruz sc-2003) beads were added and the mixture was incubated 2 hr at 4° C. The immunoprecipitates were separated on SDS-PAGE. […] In immunoprecipitation experiments 3% of the input of each sample was analyzed by immunoblot using the antibodies listed. […]
SMILES,pan-methyllysine antibody signal on wild type hG9a [1],methylation of the N-terminal G9a fragment [2],G9a and GLP phosphorylation signals [3]
COc1cc2c(NC3CCN(C4CCCCC4)CC3)nc(N3CCCN(C(C)C)CC3)nc2cc1OCCCN1CCCCC1 [UNC0646],strongly decreased,decreased,
"COc1cc2c(Nc3ccc(NC(=O)c4ccccc4)cc3)ncnc2cc1OCCCN1CCOCC1 [ZM447439, N-[4-[[6-methoxy-7-(3-morpholin-4-ylpropoxy)quinazolin-4-yl]amino]phenyl]benzamide]",,,decreased

# Source: patent publication US20200181284A1, “EPIGENETIC INHIBITORS FOR SENSITIZING HEMATOLOGIC OR OTHER MALIGNANCIES TO GLUCOCORTICOID THERAPY” (UNIVERSITY OF SOUTHERN CALIFORNIA, priority 2017, published 2020)
